2 molecules from article PMC9884089 (Journal of Medicinal Chemistry, 2023) can be followed below.

One series has as its target T1, Human PARP6 (Homo sapiens, UniProt Q2NL67).
T1 construct: Human PARP6 (Uniprot #Q2NL67-1) was cloned into a modified pFASTBac1 vector; 6× His-MBP with TEV protease site (N, cleaved yes); made in house; host or cells: Sf21 insect cells (baculovirus)
Kind of series: PARP6 inhibition assay (400 nM PARP6, 500 nM NAD+, 18 h). The series is classed as biochemical. Conditions: ≫ no inhibition at the concentration; > less than 50% inhibition. The protocol: (§1) Inhibition experiments were performed using a homogenous assay measuring NAD+ consumption.[80]−[82] Reactions were carried out in quadruplicate, and IC50 curves were fitted using sigmoidal dose response curve (four variables) in GraphPad Prism version 8.02. […] Assay conditions for PARP2, TNKS2, PARP10, and PARP15 (Tables 1–3) were recently reported.[44] The conditions for the proximity-enhanced mono-ART assays (Table 4) were also reported recently.[47] PARP6 (400 nM) inhibition was measured using the standard buffer (50 mM sodium phosphate pH 7.0) for the enhanced activity assay using 500 nM NAD^+ and 18 h incubation in r.t..

Another series deals with T2, PARP16 (Homo sapiens, UniProt Q8N5Y8).
T2 construct: dockerin domain of Hungateiclostridium thermocellum Cel48s (C); made in house; host or cells: Escherichia coli
T2 sequence (Q8N5Y8 1-322): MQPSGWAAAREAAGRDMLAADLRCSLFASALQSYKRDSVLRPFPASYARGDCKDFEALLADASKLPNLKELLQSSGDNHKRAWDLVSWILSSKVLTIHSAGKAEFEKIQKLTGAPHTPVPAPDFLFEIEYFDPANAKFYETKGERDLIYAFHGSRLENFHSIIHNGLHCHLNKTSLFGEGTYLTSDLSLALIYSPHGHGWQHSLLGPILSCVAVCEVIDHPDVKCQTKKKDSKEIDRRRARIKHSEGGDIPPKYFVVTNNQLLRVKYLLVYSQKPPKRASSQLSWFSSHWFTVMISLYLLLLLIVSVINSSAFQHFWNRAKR
Kind of series: Proximity-enhanced mono-ART activity assay, PARP16. The series is classed as biochemical. Conditions: > less than 50% inhibition. Here is the method: We therefore had to improve the assay method and developed a homogeneous proximity enhanced assay for mono-ARTs.[47]
The proteins used in Tables 1–3 were produced as described earlier. Dockerin constructs to allow enhanced activity assays for mono-ARTs (Table 4) were produced in Escherichia coli with an N-terminal maltose binding protein (MBP) and a C-terminal dockerin domain from Hungateiclostridium thermocellum Cel48s as described recently.[47]
as §1

The nature of series [1]: PAMPA, gastrointestinal tract (GI) permeability. The series is classed as in vitro ADME. Conditions: phosphatidylcholine; for Papp at 5 h, 500 μM: pH 7.4, 5 h. Here is the method: (§2) Each “donor solution” was prepared from a solution of the appropriate compound (DMSO, 1 mM) diluted with phosphate buffer (pH 7.4, 0.025 M) up to a final concentration of 500 μM. […] Donor solution (150 μL) was added to each well of the filter plate and to each well of the acceptor plate was added 300 μL of solution (50% DMSO in phosphate buffer). The sandwich plate was assembled and incubated for 5 h at r.t. After the incubation time, the plates were separated, and the samples were taken from both the donor and acceptor wells, and the amount of compound was measured by UV/LC–MS. All compounds were tested in three independent experiments. […] Drug concentration is estimated by using the peak area integration. Membrane retentions (%) were calculated according to the following equation [drawing 2] where r is the ratio between drug concentration in the acceptor and equilibrium concentration and D, A, and Eq represent drug concentration in the donor, acceptor, and equilibrium solution, respectively.

Series [2] in a line: PAMPA, blood brain barrier (BBB) permeability. Type of series: in vitro ADME. As to conditions: brain polar lipid; for Papp at 5 h, 500 μM: pH 7.4, 5 h. The protocol:
as §2

A short description of series [3]: Metabolic stability in HLM. Conditions: 37 °C, 1 h, NADPH regenerating system. Here is the method: Each compound in DMSO solution was incubated at 37 °C for 1 h in phosphate buffer (25 mM pH 7.4), human liver microsomal protein (0.2 mg/mL), and in the presence of an NADPH regenerating system (NADPH 0.2 mM, […] 1 mM, D-glucose-6-phosphate 4 mM, 4 unit/mL glucose-6-phosphate dehydrogenase) in 48 mM MgCl2 at a final volume of 500 μL. The reaction was stopped by cooling in ice and quenched by adding 1.0 mL of acetonitrile. The reaction mixtures were then centrifuged (4000 rpm for 10 min), and the supernatant was taken, dried under nitrogen flow, and suspended in 100 μL of methanol. The parent drug and metabolites were subsequently determined by UV/LC–MS. The percentage of not metabolized compound was calculated by comparison with reference solutions. For each compound, the determination was performed in three independent experiments.

A further series can be described thus: Stability in PBS pH 7.4. Conditions: 500 μM. The series is classed as physicochemical. The protocol:
For the stability measurements in polar solvents, each compound was dissolved at room temperature in MeOH or PBS (0.025 M, pH 7.4) up to a final concentration of 500 μM.

Some results are limits rather than exact numbers.

T1 sequence (Q2NL67 whole entry): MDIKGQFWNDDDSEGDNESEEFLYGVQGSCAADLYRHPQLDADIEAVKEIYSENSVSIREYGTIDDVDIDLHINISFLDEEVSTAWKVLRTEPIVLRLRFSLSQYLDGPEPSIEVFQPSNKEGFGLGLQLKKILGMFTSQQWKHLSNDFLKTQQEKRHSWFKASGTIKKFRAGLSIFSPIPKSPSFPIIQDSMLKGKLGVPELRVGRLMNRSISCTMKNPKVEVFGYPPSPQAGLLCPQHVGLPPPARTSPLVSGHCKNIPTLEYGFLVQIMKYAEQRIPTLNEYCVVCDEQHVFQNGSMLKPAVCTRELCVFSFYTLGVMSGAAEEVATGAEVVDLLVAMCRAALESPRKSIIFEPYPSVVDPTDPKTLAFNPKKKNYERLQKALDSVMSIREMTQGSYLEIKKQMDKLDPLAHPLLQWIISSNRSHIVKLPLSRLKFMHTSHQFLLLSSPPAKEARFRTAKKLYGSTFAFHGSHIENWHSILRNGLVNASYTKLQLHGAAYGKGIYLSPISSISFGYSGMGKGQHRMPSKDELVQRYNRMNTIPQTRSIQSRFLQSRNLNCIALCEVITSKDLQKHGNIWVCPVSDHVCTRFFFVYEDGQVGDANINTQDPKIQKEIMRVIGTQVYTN

`COc1ccc(OC)c2c1sc1nnc(N)n12` [Compound 27, 5,8-Dimethoxy[1,2,4]triazolo[3,4-b][1,3]benzothiazol-3-amine]: on Human PARP6, half-maximal inhibition (IC50) was put at 7.7 µM. Also, the IC50 on PARP16 was 3.4 µM. Also, in series [1], the “GI RM % (retention membrane percentage)” value is listed as 1.3% and the Papp at 5 h, 500 μM was found to be 0.144 ×10⁻⁶ cm/s. Moreover, in series [2], the “BBB RM % (retention membrane percentage)” value is on record as 3.4% and the Papp at 5 h, 500 μM was 0.143 ×10⁻⁶ cm/s. Also, the “metabolic stablity % (unchanged compound)” value in series [3] is recorded as 99.11%. The “stab in PBS pH 7.4” value in “Stability in PBS pH 7.4” is reported as >24 h.
As to `Cc1ccc2c(c1)sc1nnc(N)n12` [Compound 21, 7-Methyl[1,2,4]triazolo[3,4-b][1,3]benzothiazol-3-amine], on Human PARP6, the IC50 is > 10 µM. For the same molecule, the IC50 at PARP16 turned out to be 5.2 µM. Further, in series [1], the “GI RM % (retention membrane percentage)” value was determined as 1.8% and the Papp at 5 h, 500 μM was found to be 0.281 ×10⁻⁶ cm/s. Moreover, in series [2], the “BBB RM % (retention membrane percentage)” value came to 5.3% and the Papp at 5 h, 500 μM was 0.475 ×10⁻⁶ cm/s. In addition, in series [3], the “metabolic stablity % (unchanged compound)” value is recorded as 99.14%. Further, the “stab in PBS pH 7.4” value in the series “Stability in PBS pH 7.4” is listed as >24 h.
